We go through 20 compounds from US9783536B2, “Nitrogen-containing heterocyclic compound or salt thereof” (FUJIFILM Corporation, priority 2013, dated 2017).

Test [1] has as its target T1, human PI3Kα protein (Homo sapiens, UniProt P42336).
T1 construct: purchased Carna Biosciences, Inc; host or cells: baculovirus expression system
Briefly: PI3Kα enzyme assay (ADP-Glo). The format is biochemical. The settings on record: read-out: PI3Kα enzyme inhibitory activity. The method, boiled down:
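Biotinylated human PI3Kα (baculovirus-expressed, 4.5 nmol/L) pre-incubated 15 min with compound in Tris-HCl pH 7.5, MgCl2, BSA; reaction 60 min at 25° C with 50 μmol/L PIP2 and 100 μmol/L ATP final. ADP quantified by ADP-Glo luminescence; IC50 calculated.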
In general terms: In ADP-Glo the light output rises with the ADP produced.

Test [2] addresses T2, GST fusion human ERK2 protein (Homo sapiens, UniProt P28482).
T2 construct: purchased Carna Biosciences, Inc; host or cells: E. coli expression system
Put plainly: ERK2 enzyme assay (1). To be noted: ERK2 enzyme assay (1); read-out: ERK2 enzyme inhibitory activity (1). The test is classed as biochemical. The method, boiled down: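 IC50 derived from the proportion of phosphorylated 5-FAM peptide, separated from unphosphorylated peptide by microfluidic mobility shift. Compound was first preincubated 15 min at room temperature with 2.5 nmol/L kinase at pH 7.5, then 43.1 μmol/L ATP plus 4.25 μmol/L substrate reacted 120 min at 25 °C.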

T2 sequence (P28482 whole entry, the tested form may be a part): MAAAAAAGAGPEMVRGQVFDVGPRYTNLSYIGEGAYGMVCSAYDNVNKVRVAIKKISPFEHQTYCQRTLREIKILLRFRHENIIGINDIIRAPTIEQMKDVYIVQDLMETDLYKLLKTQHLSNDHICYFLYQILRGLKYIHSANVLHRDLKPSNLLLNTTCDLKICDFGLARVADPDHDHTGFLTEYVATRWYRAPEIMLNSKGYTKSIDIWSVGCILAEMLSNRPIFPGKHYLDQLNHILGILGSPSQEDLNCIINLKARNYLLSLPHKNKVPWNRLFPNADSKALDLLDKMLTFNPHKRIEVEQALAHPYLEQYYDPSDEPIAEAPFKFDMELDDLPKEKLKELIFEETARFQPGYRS
T1 sequence (P42336 whole entry): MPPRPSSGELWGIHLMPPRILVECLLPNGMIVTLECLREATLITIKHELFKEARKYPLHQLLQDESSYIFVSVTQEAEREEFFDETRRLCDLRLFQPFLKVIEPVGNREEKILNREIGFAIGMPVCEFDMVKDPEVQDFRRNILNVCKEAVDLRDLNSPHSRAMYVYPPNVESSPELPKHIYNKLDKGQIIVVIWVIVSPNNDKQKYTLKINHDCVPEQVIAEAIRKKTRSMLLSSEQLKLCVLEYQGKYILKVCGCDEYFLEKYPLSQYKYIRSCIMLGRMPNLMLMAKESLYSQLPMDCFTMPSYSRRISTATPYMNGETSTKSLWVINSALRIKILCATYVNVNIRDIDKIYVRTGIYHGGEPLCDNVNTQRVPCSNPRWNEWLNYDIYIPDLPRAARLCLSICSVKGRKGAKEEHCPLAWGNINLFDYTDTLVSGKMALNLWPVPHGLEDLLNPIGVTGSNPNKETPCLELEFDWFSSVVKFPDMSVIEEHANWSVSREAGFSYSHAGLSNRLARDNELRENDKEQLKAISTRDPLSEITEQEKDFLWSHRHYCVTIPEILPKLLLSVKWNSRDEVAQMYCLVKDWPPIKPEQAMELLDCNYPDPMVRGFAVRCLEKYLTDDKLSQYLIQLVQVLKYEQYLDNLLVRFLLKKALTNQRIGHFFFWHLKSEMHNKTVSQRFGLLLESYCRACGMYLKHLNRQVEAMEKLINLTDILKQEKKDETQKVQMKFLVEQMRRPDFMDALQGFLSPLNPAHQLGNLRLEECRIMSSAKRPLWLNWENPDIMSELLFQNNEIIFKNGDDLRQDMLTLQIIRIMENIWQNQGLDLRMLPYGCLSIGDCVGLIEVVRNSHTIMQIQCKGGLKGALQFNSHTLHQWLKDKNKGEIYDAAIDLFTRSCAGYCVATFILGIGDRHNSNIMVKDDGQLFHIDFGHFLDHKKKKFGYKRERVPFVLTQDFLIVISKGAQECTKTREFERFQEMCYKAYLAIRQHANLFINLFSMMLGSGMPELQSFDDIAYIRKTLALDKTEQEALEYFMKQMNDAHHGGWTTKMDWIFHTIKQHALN
T1 sequence (P27986 whole entry partner): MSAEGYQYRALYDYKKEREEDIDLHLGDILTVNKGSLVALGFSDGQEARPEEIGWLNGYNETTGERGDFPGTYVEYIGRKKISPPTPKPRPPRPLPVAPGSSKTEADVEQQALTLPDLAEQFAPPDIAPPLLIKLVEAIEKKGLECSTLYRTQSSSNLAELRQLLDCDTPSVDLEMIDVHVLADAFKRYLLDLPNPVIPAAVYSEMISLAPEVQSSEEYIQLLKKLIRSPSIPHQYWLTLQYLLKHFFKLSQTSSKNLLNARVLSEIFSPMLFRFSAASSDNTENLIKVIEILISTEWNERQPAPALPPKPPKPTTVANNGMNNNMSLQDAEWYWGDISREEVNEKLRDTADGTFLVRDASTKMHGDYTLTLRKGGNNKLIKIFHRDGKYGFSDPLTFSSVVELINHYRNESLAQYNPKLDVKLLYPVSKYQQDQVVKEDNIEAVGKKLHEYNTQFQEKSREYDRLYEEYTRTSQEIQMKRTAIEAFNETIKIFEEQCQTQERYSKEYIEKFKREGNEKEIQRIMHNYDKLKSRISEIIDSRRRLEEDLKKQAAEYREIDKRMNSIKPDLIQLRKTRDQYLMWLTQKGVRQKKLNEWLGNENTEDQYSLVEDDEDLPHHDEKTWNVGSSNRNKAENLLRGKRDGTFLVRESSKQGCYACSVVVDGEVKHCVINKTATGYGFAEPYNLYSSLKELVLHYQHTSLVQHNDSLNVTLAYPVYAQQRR

As for `CC(C)c1nnc(Nc2ccc3nccc(-c4cccnc4)c3n2)s1` [Example 0268, 5-isopropyl-N-(8-(pyridin-3-yl)-1,5-naphthyridin-2-yl)-1,3,4-thiadiazole-2-amine], the IC50 in test [1] and in test [2] was less than 1000 nM in each case.
In the case of `CC(C)c1nnc(Nc2ccc3nccc(-c4ccncc4)c3n2)s1` [Example 0269, 5-isopropyl-N-(8-(pyridin-4-yl)-1,5-naphthyridin-2-yl)-1,3,4-thiadiazole-2-amine], the IC50 in test [1] and in test [2] was less than 1000 nM in each case.
Take `COc1ccccc1-c1ccnc2ccc(Nc3nnc(C(C)C)s3)nc12` [Example 0270]: the IC50 in test [1] and in test [2] was less than 1000 nM each time.
Regarding `COc1ccc(-c2ccnc3ccc(Nc4nnc(C(C)C)s4)nc23)cc1` [Example 0272], the IC50 in test [1] was 1000 to 10000 nM; in test [2] it was less than 1000 nM.
On to `CC(C)c1nnc(Nc2ccc3nccc(-c4cnn(C)c4)c3n2)s1` [Example 0273], for which the IC50 in test [1] and in test [2] was less than 1000 nM throughout.
On to `CC(C)c1nnc(Nc2ccc3nccc(-c4cnn(CCN5CCOCC5)c4)c3n2)s1` [Example 0274], for which the IC50 is less than 1000 nM in test [1] and 1000 to 10000 nM in test [2].
For `c1cc(-c2ccnc3ccc(Nc4nncs4)nc23)ccn1` [Example 0275], the IC50 in test [1] and in test [2] was less than 1000 nM in each case.
Take `Cc1cc(Nc2ccc3ncc(-c4cnn(C)c4)cc3n2)n[nH]1` [Example 0277, N-(5-methyl-1H-pyrazol-3-yl)-7-(1-methyl-1H-pyrazol-4-yl)-1,5-naphthyridine-2-amine]: the IC50 in test [1] and in test [2] was 1000 to 10000 nM throughout.
`CC(C)c1nnc(Nc2ccc3nccc(-c4cncnc4)c3n2)s1` [Example 0278, 5-isopropyl-N-(8-(pyrimidin-5-yl)-1,5-naphthyridin-2-yl)-1,3,4-thiadiazole-2-amine]: the IC50 in test [1] and in test [2] was less than 1000 nM in each case.
As to `COc1cnccc1-c1ccnc2ccc(Nc3nnc(C(C)C)s3)nc12` [Example 0279], the IC50 in test [1] and in test [2] was less than 1000 nM each time.
`COc1cc(-c2ccnc3ccc(Nc4nnc(C(C)C)s4)nc23)ccn1` [Example 0280]: the values for the IC50 in test [1] and in test [2] were 10000 to 50000 nM and 1000 to 10000 nM, respectively.
The corresponding values for `CC(C)c1nnc(Nc2ccc3nccc(-c4ccccn4)c3n2)s1` [Example 0281, 5-isopropyl-N-(8-(pyridin-2-yl)-1,5-naphthyridin-2-yl)-1,3,4-thiadiazole-2-amine] are 1000 to 10000 nM and 1000 to 10000 nM.
For `CC(C)c1nnc(Nc2ccc3nccc(-c4cnccn4)c3n2)s1` [Example 0282], the IC50 in test [1] and in test [2] was 1000 to 10000 nM throughout.
`CC(C)c1nnc(Nc2ccc3nccc(-c4ccnnc4)c3n2)s1` [Example 0283]: the IC50 in test [1] and in test [2] was less than 1000 nM in each case.
For `CC(C)c1nnc(Nc2ccc3nccc(-c4cn[nH]c4)c3n2)s1` [Example 0284], the IC50 in test [1] was less than 1000 nM; in test [2], 1000 to 10000 nM.
Regarding `CC(C)c1nnc(Nc2ccc3nccc(-c4ccn[nH]4)c3n2)s1` [Example 0285], the IC50 in test [1] and in test [2] was less than 1000 nM each time.
Turning to `CC(C)c1nnc(Nc2ccc3nccc(N4CCOCC4)c3n2)s1` [Example 0286, 5-isopropyl-N-(8-morpholino-1,5-naphthyridin-2-yl)-1,3,4-thiadiazole-2-amine], the IC50 in test [1] and in test [2] was 1000 to 10000 nM throughout.
For the compound `CC(C)c1nnc(Nc2ccc3nccc(-c4cccc(C(N)=O)c4)c3n2)s1` [Example 0287], the IC50 in test [1] and in test [2] was less than 1000 nM throughout.
Turning to `CC(C)c1nnc(Nc2ccc3nccc(-c4ccc(C(N)=O)cc4)c3n2)s1` [Example 0288], the IC50 in test [1] and in test [2] was less than 1000 nM in each case.
For `CC(C)c1nnc(Nc2ccc3nccc(-c4cc[nH]c(=O)c4)c3n2)s1` [Example 0289, 4-(6-((5-isopropyl-1,3,4-thiadiazol-2-yl)amino)-1,5-naphthyridin-4-yl)pyridin-2(1H)-one], the IC50 was less than 1000 nM in test [1] and 1000 to 10000 nM in test [2].
